# Reference: ChEMBL document CHEMBL4507272 (2021)
# What was measured:
# [1] = target: AP2-associated protein kinase 1 (Homo sapiens) (UniProt Q2M2I8); settings: Compound concentration 1000.0 nM
# [2] = target: Mitogen-activated protein kinase kinase kinase 6 (Homo sapiens) (UniProt O95382); settings: Compound concentration 1000.0 nM
# [3] = target: Bone morphogenetic protein receptor type-1A (Homo sapiens) (UniProt P36894); settings: Compound concentration 1000.0 nM
# [4] = target: Calcium/calmodulin-dependent protein kinase type 1B (Homo sapiens) (UniProt Q6P2M8); settings: Compound concentration 1000.0 nM
# [5] = target: Calcium/calmodulin-dependent protein kinase type II subunit alpha (Homo sapiens) (UniProt Q9UQM7); settings: Compound concentration 1000.0 nM
# [6] = target: Peripheral plasma membrane protein CASK (Homo sapiens) (UniProt O14936); settings: Compound concentration 1000.0 nM
# [7] = target: Dual specificity protein kinase CLK2 (Homo sapiens) (UniProt P49760); settings: Compound concentration 1000.0 nM
# [8] = system: Epidermal growth factor receptor (Homo sapiens), P00533 [UNDEFINED MUTATION]; settings: Compound concentration 1000.0 nM
# [9] = system: Epidermal growth factor receptor (Homo sapiens), P00533 [L861Q]; settings: Compound concentration 1000.0 nM
# [10] = system: Epidermal growth factor receptor (Homo sapiens), P00533 [T790M]; settings: Compound concentration 1000.0 nM
# [11] = target: Ephrin type-A receptor 3 (Homo sapiens) (UniProt P29320); settings: Compound concentration 1000.0 nM
# [12] = target: Ephrin type-A receptor 4 (Homo sapiens) (UniProt P54764); settings: Compound concentration 1000.0 nM
# [13] = target: Ephrin type-B receptor 2 (Homo sapiens) (UniProt P29323); settings: Compound concentration 1000.0 nM
# [14] = target: Mitogen-activated protein kinase 6 (Homo sapiens) (UniProt Q16659); settings: Compound concentration 1000.0 nM
# [15] = target: Fibroblast growth factor receptor 3 (Homo sapiens) (UniProt P22607); settings: Compound concentration 1000.0 nM
# [16] = target: Receptor-type tyrosine-protein kinase FLT3 (Homo sapiens) (UniProt P36888); settings: Compound concentration 1000.0 nM
# [17] = target: Mitogen-activated protein kinase kinase kinase kinase 1 (Homo sapiens) (UniProt Q92918); settings: Compound concentration 1000.0 nM
# [18] = target: Insulin-like growth factor 1 receptor (Homo sapiens) (UniProt P08069); settings: Compound concentration 1000.0 nM
# [19] = system: Mast/stem cell growth factor receptor Kit (Homo sapiens), P10721 [D816V]; settings: Compound concentration 1000.0 nM
# [20] = system: Leucine-rich repeat serine/threonine-protein kinase 2 (Homo sapiens), Q5S007 [G2019S]; settings: Compound concentration 1000.0 nM
# [21] = target: Myosin light chain kinase, smooth muscle (Homo sapiens) (UniProt Q15746); settings: Compound concentration 1000.0 nM
# [22] = target: Serine/threonine-protein kinase Nek1 (Homo sapiens) (UniProt Q96PY6); settings: Compound concentration 1000.0 nM
# [23] = target: Serine/threonine-protein kinase Nek5 (Homo sapiens) (UniProt Q6P3R8); settings: Compound concentration 1000.0 nM
# [24] = target: Serine/threonine-protein kinase Nek7 (Homo sapiens) (UniProt Q8TDX7); settings: Compound concentration 1000.0 nM
# [25] = target: Cyclin-dependent kinase 2 homolog (Plasmodium falciparum (isolate 3D7)) (UniProt P61075); settings: Compound concentration 1000.0 nM
# [26] = system: Phosphatidylinositol 4,5-bisphosphate 3-kinase catalytic subunit alpha isoform (Homo sapiens), P42336 [E542K]; settings: Compound concentration 1000.0 nM
# [27] = system: Phosphatidylinositol 4,5-bisphosphate 3-kinase catalytic subunit alpha isoform (Homo sapiens), P42336 [M1043I]; settings: Compound concentration 1000.0 nM
# [28] = target: Phosphatidylinositol 4,5-bisphosphate 3-kinase catalytic subunit beta isoform (Homo sapiens) (UniProt P42338); settings: Compound concentration 1000.0 nM
# [29] = target: Phosphatidylinositol 4,5-bisphosphate 3-kinase catalytic subunit gamma isoform (Homo sapiens) (UniProt P48736); settings: Compound concentration 1000.0 nM
# [30] = target: cGMP-dependent protein kinase 1 (Homo sapiens) (UniProt Q13976); settings: Compound concentration 1000.0 nM
# [31] = target: Interferon-induced, double-stranded RNA-activated protein kinase (Homo sapiens) (UniProt P19525); settings: Compound concentration 1000.0 nM
# [32] = system: Proto-oncogene tyrosine-protein kinase receptor Ret (Homo sapiens), P07949 [M918T]; settings: Compound concentration 1000.0 nM
# [33] = target: Ribosomal protein S6 kinase alpha-1 (Homo sapiens) (UniProt Q15418); settings: Compound concentration 1000.0 nM
# [34] = target: Ribosomal protein S6 kinase alpha-3 (Homo sapiens) (UniProt P51812); settings: Compound concentration 1000.0 nM
# [35] = target: Serine/threonine-protein kinase Sgk1 (Homo sapiens) (UniProt O00141); settings: Compound concentration 1000.0 nM
# [36] = target: NUAK family SNF1-like kinase 2 (Homo sapiens) (UniProt Q9H093); settings: Compound concentration 1000.0 nM
# [37] = target: TRAF2 and NCK-interacting protein kinase (Homo sapiens) (UniProt Q9UKE5); settings: Compound concentration 1000.0 nM
# [38] = target: Tyrosine-protein kinase TXK (Homo sapiens) (UniProt P42681); settings: Compound concentration 1000.0 nM
# [39] = target: Phosphatidylinositol 3-kinase catalytic subunit type 3 (Homo sapiens) (UniProt Q8NEB9); settings: Compound concentration 1000.0 nM
# [40] = target: 5-hydroxytryptamine receptor 2C (Homo sapiens) (UniProt P28335); settings: Compound concentration 10.0 uM
# [41] = target: Alpha-2A adrenergic receptor (Homo sapiens) (UniProt P08913); settings: Compound concentration 10.0 uM
# [42] = target: Alpha-2C adrenergic receptor (Homo sapiens) (UniProt P18825); settings: Compound concentration 10.0 uM
# [43] = target: GABA-A receptor; anion channel (Rattus norvegicus) (UniProt O09028+P15431+P18506+P18508+P19969+P20236+P23574+P23576+P28471+P28473+P30191+P62813+P63079+P63138+Q91ZM7+Q9ES14); settings: Compound concentration 10.0 uM
# Chain of Leucine-rich repeat serine/threonine-protein kinase 2 (Homo sapiens), Q5S007 [G2019S] (Q5S007 whole entry G2019S): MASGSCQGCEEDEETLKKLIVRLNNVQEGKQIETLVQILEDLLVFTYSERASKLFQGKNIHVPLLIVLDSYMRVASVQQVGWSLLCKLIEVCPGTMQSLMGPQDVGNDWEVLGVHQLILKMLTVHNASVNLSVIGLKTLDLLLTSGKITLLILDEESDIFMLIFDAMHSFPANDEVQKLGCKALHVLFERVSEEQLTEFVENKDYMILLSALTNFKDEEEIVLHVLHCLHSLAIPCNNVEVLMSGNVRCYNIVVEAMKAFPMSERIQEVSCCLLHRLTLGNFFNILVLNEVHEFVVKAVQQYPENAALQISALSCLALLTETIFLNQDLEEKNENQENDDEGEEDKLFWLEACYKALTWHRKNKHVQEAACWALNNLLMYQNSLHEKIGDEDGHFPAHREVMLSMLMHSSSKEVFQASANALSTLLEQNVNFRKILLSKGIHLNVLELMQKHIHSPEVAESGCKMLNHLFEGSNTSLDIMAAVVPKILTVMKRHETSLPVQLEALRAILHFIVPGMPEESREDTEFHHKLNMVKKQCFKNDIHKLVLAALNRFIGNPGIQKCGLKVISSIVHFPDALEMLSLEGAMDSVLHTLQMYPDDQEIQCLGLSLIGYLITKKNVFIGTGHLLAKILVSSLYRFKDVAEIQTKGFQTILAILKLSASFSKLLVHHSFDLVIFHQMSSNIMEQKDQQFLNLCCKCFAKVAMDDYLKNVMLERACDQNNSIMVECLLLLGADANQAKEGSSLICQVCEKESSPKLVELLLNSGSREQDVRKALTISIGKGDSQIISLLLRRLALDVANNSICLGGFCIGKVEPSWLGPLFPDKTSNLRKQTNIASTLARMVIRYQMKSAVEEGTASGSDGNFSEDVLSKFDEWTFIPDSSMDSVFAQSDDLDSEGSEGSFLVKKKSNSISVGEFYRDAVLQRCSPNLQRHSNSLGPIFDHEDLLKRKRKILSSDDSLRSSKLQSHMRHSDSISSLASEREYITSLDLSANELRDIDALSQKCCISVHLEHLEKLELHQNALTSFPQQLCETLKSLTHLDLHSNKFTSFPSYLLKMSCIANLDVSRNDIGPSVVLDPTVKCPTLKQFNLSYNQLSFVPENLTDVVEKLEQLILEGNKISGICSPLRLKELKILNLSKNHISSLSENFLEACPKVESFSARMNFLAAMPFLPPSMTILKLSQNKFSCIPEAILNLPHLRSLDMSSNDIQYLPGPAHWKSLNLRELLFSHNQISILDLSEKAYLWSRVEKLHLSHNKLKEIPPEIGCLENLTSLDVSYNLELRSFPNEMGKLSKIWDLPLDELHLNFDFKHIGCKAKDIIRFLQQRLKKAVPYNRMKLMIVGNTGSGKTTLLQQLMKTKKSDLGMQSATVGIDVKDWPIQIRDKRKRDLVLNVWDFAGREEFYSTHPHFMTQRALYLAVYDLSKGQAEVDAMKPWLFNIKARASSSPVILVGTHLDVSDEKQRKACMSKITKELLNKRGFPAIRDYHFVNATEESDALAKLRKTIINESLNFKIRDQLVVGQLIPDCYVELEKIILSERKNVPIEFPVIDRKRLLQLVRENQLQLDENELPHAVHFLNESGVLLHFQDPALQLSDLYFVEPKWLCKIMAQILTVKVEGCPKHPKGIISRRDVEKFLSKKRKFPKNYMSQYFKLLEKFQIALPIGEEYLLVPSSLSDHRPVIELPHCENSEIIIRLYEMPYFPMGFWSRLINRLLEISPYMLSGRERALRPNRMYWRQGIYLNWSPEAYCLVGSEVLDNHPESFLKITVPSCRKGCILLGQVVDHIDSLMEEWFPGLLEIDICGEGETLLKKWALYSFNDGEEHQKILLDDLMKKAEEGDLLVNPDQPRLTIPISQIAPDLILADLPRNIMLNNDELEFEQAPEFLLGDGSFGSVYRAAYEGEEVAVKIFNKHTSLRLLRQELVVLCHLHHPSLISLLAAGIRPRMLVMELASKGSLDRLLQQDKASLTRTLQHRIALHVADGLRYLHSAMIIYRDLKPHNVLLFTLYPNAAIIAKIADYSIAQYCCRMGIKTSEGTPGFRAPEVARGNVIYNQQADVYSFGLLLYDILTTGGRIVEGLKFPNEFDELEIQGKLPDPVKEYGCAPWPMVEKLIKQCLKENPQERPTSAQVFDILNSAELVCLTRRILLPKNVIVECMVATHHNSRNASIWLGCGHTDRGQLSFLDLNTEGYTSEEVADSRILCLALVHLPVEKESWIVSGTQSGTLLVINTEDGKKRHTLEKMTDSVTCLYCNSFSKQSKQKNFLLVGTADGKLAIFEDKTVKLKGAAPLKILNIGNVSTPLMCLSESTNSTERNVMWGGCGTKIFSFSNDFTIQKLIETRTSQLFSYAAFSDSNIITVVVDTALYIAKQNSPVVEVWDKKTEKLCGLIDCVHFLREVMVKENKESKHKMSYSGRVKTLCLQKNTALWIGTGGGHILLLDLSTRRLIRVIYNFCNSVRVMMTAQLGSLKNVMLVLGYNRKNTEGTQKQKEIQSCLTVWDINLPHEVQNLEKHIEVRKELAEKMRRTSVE
# Chain of Mitogen-activated protein kinase 6 (Homo sapiens) (Q16659 whole entry): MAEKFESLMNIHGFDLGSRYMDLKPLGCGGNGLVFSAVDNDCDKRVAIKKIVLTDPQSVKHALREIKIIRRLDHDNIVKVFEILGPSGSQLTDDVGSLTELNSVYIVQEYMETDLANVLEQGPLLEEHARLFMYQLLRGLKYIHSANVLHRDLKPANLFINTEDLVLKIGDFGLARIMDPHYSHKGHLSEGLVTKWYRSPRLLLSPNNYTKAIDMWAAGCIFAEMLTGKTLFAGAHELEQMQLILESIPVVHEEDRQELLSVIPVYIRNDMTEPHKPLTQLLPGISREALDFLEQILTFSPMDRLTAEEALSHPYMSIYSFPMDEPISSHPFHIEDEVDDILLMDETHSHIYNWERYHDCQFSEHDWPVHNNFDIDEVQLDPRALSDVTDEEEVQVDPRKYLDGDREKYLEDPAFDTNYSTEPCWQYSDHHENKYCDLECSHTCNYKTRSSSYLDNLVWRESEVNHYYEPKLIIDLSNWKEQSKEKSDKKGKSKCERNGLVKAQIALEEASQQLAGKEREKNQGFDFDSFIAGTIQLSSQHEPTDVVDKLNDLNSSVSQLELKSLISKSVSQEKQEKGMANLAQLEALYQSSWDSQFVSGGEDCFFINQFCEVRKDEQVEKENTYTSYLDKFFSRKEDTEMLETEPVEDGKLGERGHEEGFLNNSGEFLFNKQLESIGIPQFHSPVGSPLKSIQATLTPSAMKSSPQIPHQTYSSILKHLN
# Chain of Phosphatidylinositol 4,5-bisphosphate 3-kinase catalytic subunit alpha isoform (Homo sapiens), P42336 [E542K] (P42336 whole entry E542K, canonical isoform): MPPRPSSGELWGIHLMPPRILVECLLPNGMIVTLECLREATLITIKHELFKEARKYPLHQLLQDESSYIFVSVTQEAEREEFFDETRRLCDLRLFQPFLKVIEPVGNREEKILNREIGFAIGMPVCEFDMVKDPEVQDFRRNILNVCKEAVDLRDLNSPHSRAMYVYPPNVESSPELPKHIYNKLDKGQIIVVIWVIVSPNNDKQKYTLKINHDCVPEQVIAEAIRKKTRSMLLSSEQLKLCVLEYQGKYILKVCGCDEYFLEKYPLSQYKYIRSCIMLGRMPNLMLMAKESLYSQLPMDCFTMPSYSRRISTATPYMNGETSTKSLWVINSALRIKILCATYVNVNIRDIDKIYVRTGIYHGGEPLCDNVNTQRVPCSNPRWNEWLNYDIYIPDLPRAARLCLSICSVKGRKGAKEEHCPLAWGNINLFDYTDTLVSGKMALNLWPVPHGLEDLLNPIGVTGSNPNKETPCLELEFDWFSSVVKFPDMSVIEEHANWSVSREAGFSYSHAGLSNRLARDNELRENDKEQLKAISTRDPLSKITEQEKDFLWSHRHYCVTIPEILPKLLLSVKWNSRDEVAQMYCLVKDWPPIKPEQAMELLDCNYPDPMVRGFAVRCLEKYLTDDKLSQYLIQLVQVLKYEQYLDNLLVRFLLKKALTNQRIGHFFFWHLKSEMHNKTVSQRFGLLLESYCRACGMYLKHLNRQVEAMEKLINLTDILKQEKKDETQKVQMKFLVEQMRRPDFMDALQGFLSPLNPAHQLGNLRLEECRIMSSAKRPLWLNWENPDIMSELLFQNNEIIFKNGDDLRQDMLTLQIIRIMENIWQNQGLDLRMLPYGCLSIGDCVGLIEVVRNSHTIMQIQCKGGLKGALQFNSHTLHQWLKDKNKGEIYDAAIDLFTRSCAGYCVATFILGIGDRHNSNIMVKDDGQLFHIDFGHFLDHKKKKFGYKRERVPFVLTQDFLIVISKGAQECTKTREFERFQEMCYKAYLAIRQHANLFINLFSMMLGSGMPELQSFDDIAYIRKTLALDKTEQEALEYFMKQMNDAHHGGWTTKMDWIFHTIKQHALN
# Chain of NUAK family SNF1-like kinase 2 (Homo sapiens) (Q9H093 whole entry): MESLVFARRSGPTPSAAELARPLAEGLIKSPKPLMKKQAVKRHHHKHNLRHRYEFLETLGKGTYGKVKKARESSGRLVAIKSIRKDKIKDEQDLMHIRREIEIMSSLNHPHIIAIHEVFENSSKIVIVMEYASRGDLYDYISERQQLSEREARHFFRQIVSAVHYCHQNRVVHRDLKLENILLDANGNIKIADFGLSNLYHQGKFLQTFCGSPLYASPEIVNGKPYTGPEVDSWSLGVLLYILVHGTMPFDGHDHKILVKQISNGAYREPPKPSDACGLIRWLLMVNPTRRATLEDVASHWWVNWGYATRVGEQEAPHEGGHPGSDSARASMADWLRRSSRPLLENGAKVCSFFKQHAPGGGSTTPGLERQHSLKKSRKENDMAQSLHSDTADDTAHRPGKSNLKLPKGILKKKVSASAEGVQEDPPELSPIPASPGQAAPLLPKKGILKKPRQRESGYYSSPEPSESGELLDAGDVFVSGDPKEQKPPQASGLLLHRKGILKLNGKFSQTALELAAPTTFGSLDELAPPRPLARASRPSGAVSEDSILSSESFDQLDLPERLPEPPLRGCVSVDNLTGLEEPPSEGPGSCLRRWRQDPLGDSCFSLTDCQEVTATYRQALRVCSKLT
# Chain of Phosphatidylinositol 4,5-bisphosphate 3-kinase catalytic subunit alpha isoform (Homo sapiens), P42336 [M1043I] (P42336 whole entry M1043I, canonical isoform): as the sequence (P42336 whole entry E542K, canonical isoform) above, with K542E, M1043I counted along it
structure (smiles),measurement,setting,value
CC(=O)C1=C(C)N(c2cccc(C(F)(F)F)c2)C(=O)N[C@@H]1c1ccc(C#N)nc1 [BAY-678],residual activity,[1],100%
same,residual activity,[2],91.2%
same,residual activity,[3],100%
same,residual activity,[4],92.4%
same,residual activity,[5],92.5%
same,residual activity,[6],100%
same,residual activity,[7],100%
same,residual activity,[8],78.6%
same,residual activity,[9],100%
same,residual activity,[10],67.2%
same,residual activity,[11],100%
same,residual activity,[12],100%
same,residual activity,[13],100%
same,residual activity,[14],75.8%
same,residual activity,[15],96.4%
same,residual activity,[16],82.9%
same,residual activity,[17],100%
same,residual activity,[18],100%
same,residual activity,[19],100%
same,residual activity,[20],100%
same,residual activity,[21],83.8%
same,residual activity,[22],100%
same,residual activity,[23],80.6%
same,residual activity,[24],100%
same,residual activity,[25],100%
same,residual activity,[26],100%
same,residual activity,[27],100%
same,residual activity,[28],100%
same,residual activity,[29],100%
same,residual activity,[30],45.5%
same,residual activity,[31],83.4%
same,residual activity,[32],100%
same,residual activity,[33],91.5%
same,residual activity,[34],99.2%
same,residual activity,[35],100%
same,residual activity,[36],100%
same,residual activity,[37],90.8%
same,residual activity,[38],100%
same,residual activity,[39],100%
same,inhibition,[40],-2.88%
same,inhibition,[41],10.5%
same,inhibition,[42],20.2%
same,inhibition,[43],9.75%
